Reference: patent US20070161611A1, “POLYCYCLIC PHENOLIC COMPOUNDS AND USE IN TREATING VIRAL INFECTIONS” (priority 2005, published 2007)
Like-named read-outs stand apart in the source and are kept apart here.

Legend:
BVDV strain NADL = experiment: Inhibition of viral release in BVDV-infected MDBK cells (plaque titration of supernatant); type: cell-based, Bovine Viral Diarrhea virus; conditions: 24 h treatment
Method: (§1) Madin-Darby Bovine Kidney Cells (MDBK) (American Type Culture Collection (ATCC) No. CCL-22, Manassas, Va) were seeded into 96-well plates at a density of approximately 2×10^4 cells per well. The cell cultures were incubated for 3-24 hours to allow for attachment of cells to the culture plates prior to infection and addition of compounds. BVDV strain NADL (ATCC No. VR-534) plaque forming units (PFU) were added to each well to achieve a multiplicity of infection (MOI) ranging from about 1 or about 0.001, and allowed to remain in contact with the cultured cells for 1 to 2 hours. The virus was then removed and the cells were washed with growth medium (e.g., Dulbecco's Modified Eagles Medium (DMEM)) containing 5% horse serum (HS), or with phosphate buffered saline (PBS), 1% HS, and 1 mM MgCl2. The test compounds, dissolved in cell growth media with 2% HS, were then added to the BVDV-infected cells or uninfected cells (cytotoxicity determination) at various concentrations. The plates were incubated at 37° C., 5% CO2 for 24 hours (i.e., about one cycle of BVDV replication). The plates were then centrifuged at low speed and the supernatant was serially diluted for use in infecting a new monolayer of cells in 12-well plates. […] The virus plaques formed in MDBK cell cultures were quantified by a manual count and a titer was determined.

in vitro [1] = type: cell-based; conditions: bovine
Method: Cell proliferation was monitored using a non-radioactive MTS/PMS assay (MTS: 3-(4,5-dimethylthiazol-2-yl)-5-(3-carboxymethoxy phenyl)-2-(4-sulfophenyl)-2H-tetrazolium (Promega, Madison, Wis.)); (PMS: phenazine methosulfate (Sigma Aldrich, St. Louis, Mo.)). MDBK cells were seeded into 96-well plates at a density of approximately 2×10^4 cells per well. The cultures were incubated 3-24 hours to permit attachment of the cells to the plates prior to infection and addition of compounds. […] A 96-well microtiter spectrophotometer plate reader was used to measure the absorbance at 490 nm after incubation of the 96-well plate for 1 to 4 hours at 37° C. in a humidified, 5% CO2 atmosphere. The mean absorbance in each set of triplicate wells was determined. Antiviral activity was measured as MTS conversion relative to the differential between the conversion for cell (non-infected) and viral (non-drug-treated) controls. The cytopathic effect (CPE) reduction for each concentration of the tested compound, which correlated with antiviral activity, was calculated as follows. % CPE reduction=[(D−ND)/(NI−ND)]×100, where D (drug-treated)=the absorbance of drug-treated cells; ND (non drug-treated)=the absorbance of untreated infected cells; and NI (non-infected)=the absorbance of non-infected cells. […]

MDBK cells = experiment: Cytotoxicity in uninfected MDBK cells after 24 h treatment (OD490); type: cell-based, bovine; conditions: untreated control OD490 1.2
Method: as §1

[2] = as above; type: cell-based, bovine; conditions: bovine, compared to control, read-out: % Cytotoxicity of Compound 20 (1 μM)
Method: as §1

BVDV-NADL = experiment: Protection of MDBK cells from BVDV-induced cytopathicity (MTS/PMS CPE reduction assay); type: cell-based; conditions: Bovine viral diarrhea virus isolates and strains
Method: Cell proliferation was monitored using a non-radioactive MTS/PMS assay (MTS: 3-(4,5-dimethylthiazol-2-yl)-5-(3-carboxymethoxy phenyl)-2-(4-sulfophenyl)-2H-tetrazolium (Promega, Madison, Wis.)); (PMS: phenazine methosulfate (Sigma Aldrich, St. Louis, Mo.)). MDBK cells were seeded into 96-well plates at a density of approximately 2×10^4 cells per well. The cultures were incubated 3-24 hours to permit attachment of the cells to the plates prior to infection and addition of compounds. The appropriate PFU of BVDV-NADL were added to each well to achieve the desired MOI (<1 or >0.001); the cells were exposed to the virus diluted at the appropriate concentration in phosphate buffered saline (PBS) containing 1% horse serum (HS) for 1 to 2 hours. The virus was then removed and the cells were washed with PBS containing 1% HS. The test compounds were serially diluted in cell growth media with 2% HS and added to the cells. The plates were incubated at 37° C. in the presence of 5% CO2 for 3-4 days. Uninfected cells and infected, untreated cells (without compound) were used as additional controls. The final volume was 100 μl per well. After the 3-4 days of incubation a volume of 20 μL of the combined MTS/PMS solution was added into each well of the 96-well assay plate containing 100 μL of cells in culture medium to obtain final concentrations of 333 μg/ml MTS 5 and 25 μM PMS. A 96-well microtiter spectrophotometer plate reader was used to measure the absorbance at 490 nm after incubation of the 96-well plate for 1 to 4 hours at 37° C. in a humidified, 5% CO2 atmosphere. The mean absorbance in each set of triplicate wells was determined. Antiviral activity was measured as MTS conversion relative to the differential between the conversion for cell (non-infected) and viral (non-drug-treated) controls. The cytopathic effect (CPE) reduction for each concentration of the tested compound, which correlated with antiviral activity, was calculated as follows. % CPE reduction=[(D−ND)/(NI−ND)]×100, where D (drug-treated)=the absorbance of drug-treated cells; ND (non drug-treated)=the absorbance of untreated infected cells; and NI (non-infected)=the absorbance of non-infected cells. EC50 represents the concentration of drug that protects 50% of the cells from BVDV induced cytotoxicity (50% CPE reduction). CC50 equals the concentration that affects the viability of 50% of the MDBK cells.
The compounds were combined at fixed molar ratios and serially diluted 2-fold in cell growth medium to examine a range of 6 fixed ratio combinations including those having about an equipotent antiviral dose to a combination in which one test compound was used at a sub-optimal level (e.g., sub-therapeutic).

[3] = tested on: non-cytopathic BVDV Pe515; experiment: Non-cytopathic BVDV genomic RNA reduction in MDBK cells (qRT-PCR); type: cell-based; conditions: Bovine viral diarrhea virus isolates and strains, 72 h, MOI 0.001, three day treatment, FIG. 1, read-out: EC50 of ncp BVDV genomic replication
Method: MDBK cells were seeded into 6-or 96-well plates at a density of approximately 2×10^4 cells per well. The cultures were incubated 3-24 hours to permit attachment of the cells to the plates prior to infection and addition of compounds. The appropriate number of non-cytopathic BVDV Pe515 (ncp BVDV) PFU were added to each well to achieve the desired MOI (0.001); the cells were contacted with the virus diluted at the appropriate concentration in PBS containing 1% HS and 1 mM MgCl2 for 1 to 2 hours. The test compounds dissolved in cell growth media with 2% HS were added to the cells at varying concentrations. The plates were incubated at 37° C. in the presence of 5% CO2 for 3-4 days. […] Real-time quantitation was done using the Quantitative One Step Reverse Transcriptase (RT) Polymerase Chain Reaction (qRT-PCR) MasterMix Plus for SYBR® Green I (Eurogentec, San Diego, calif.). […] The following primers were used for the one step RT-PCR SYBR quantitation assay: forward primer 5′-[…]-3′ (SEQ ID NO:1) and reverse primer 5′-[…]-3′ (SEQ ID NO:2). […] Well-to-well variations in background fluorescence were corrected for by use of a ROX-labeled passive reference, included as part of the Eurogentec One Step qRT-PCR Master Mix for each sample. Amplification curves were analyzed by using empirically established cycle threshold and baseline settings for the assay. […]

[4] = Toxicity in AVA5 replicon cells (neutral red dye uptake); conditions: human, AVA5 cells (HCV RNA-replicating, Huh7-derived)
Method: The antiviral activity of test compounds were assayed in the stably HCV RNA-replicating cell line, AVA5, derived by transfection of the human hepatoblastoma cell line, Huh7 (Blight, et al., 2000, Science 290: 1972). […] Intracellular HCV RNA levels and cytotoxicity were assessed 24 hours after the last dose of compound.
Assays were conducted using 4-5 doses of test compound. […] HCV RNA levels were assessed 24 hours after the last dose of compound using a dot blot hybridization assay. Both HCV and β-actin RNA levels in triplicate treated cultures were expressed as a percentage of the mean levels of RNA detected in untreated cultures (6 total). β-Actin RNA levels were used both as a measure of toxicity, and to normalize the amount of cellular RNA in each sample. Toxicity analyses were performed on separate plates from those used for the antiviral assays. Cells for the toxicity analyses were cultured and treated with test compounds with the same schedule and under identical culture conditions as used for the antiviral evaluations. Uptake of neutral red dye was used to determine the relative level of toxicity 24 hours following the last treatment. The absorbance of internalized dye at 510 nm (A510) was used for the quantitative analysis. Values in test cultures were compared to 9 cultures of untreated cells maintained on the same plate as the test cultures.

HIV-1RF = experiment: Anti-HIV-1 activity in CEM-SS cells (inhibition of HIV-1 induced cytotoxicity); conditions: Human immunodeficiency virus 1, CEM-SS; for EC50: read-out: CEM-SS/HIV-1RF EC50
[5] = tested on: HCV sub-genomic replicon genotype 1b; experiment: HCV sub-genomic replicon assay in AVA5 cells (HCV RNA dot blot hybridization); type: cell-based, Hepatitis C Virus; conditions: for SI (Selectivity Index): HCV replicon genotype 1b; for EC50: Hepatitis C virus, AVA5 cells, once daily for three days, HCV RNA 24 h after last dose
in vitro [6] = conditions: human
CEM-SS cells = experiment: Cytotoxicity in CEM-SS cells; conditions: at 300 μM
[7] = MOI = 0.05, 3-4 days, read-out: EC50
[8] = MOI of 0.01, monotherapy run in parallel to combination studies, read-out: EC50 (monotherapy)

Compound	CC50 at 3 days [4] [µM]	EC50 (HIV-1RF) [µM]	SI (Selectivity Index) [5]	EC50 [5] [µM]	CC50 (in vitro [6]) [µM]	EC50 (BVDV-NADL; [8]) [µM]	further results
C[C@]12CC[C@@H]3c4cc(C56CC7CC(CC(C7)C5)C6)c(O)cc4CC[C@H]3[C@@H]1CC[C@@H]2O [Compound 20, 17(β)-2-(1-adamantyl)-estra-1,3,5(10)-triene-3,17-diol]	8.1	8.6	188	0.043	14.3		Viral titer in presence of 1 μM of Compound 20 (BVDV strain NADL; untreated control 7.0 × 10^5 PFU/mL): 2.2 × 10^5 PFU/mL; inhibition at 1 µM (BVDV strain NADL; Bovine viral diarrhea virus isolates and strains, MDBK, compared to control, read-out: % Inhibition of Viral Release by Compound 20 at 1 μM): 69%; CC50 (in vitro [1]): 40.1 ± 25.1 µM; OD490 - 1 μM Compound 20 (MDBK cells): 1.2; cytotoxicity at 24 h, 1 µM [2]: 0%; EC50 (BVDV-NADL; MOI 0.01, read-out: EC50): 0.34 ± 0.02 µM; EC50 (BVDV-NADL; MOI 0.02, read-out: EC50): 0.51 µM; EC50 (BVDV-NADL; MOI 0.03, read-out: EC50): 0.46 µM; EC50 (BVDV-NADL; [7]): 0.8 ± 0.22 µM; EC50 [3]: ~0.15 µM
CCCC(=O)O[C@H]1CN2CC[C@H](O)[C@@H]2[C@@H](O)[C@@H]1O [Celgosivir, [1S-(1α,6β,7α,8β,8αβ)]-octahydro-1,6,7,8-indolizinetetrol 6-butanoate, reference compound]						2.2	
CO/N=C1\CC[C@H]2[C@@H]3CCc4cc(O)c(C56CC7CC(CC(C7)C5)C6)cc4[C@H]3CC[C@]12C [Compound 5]		5.8			17.3		
C[C@@]1(O)[C@H](O)[C@@H](CO)O[C@H]1n1ccc(N)nc1=O [NM107, 2′-C-methyl cytidine, reference compound]						0.99	
C[C@]12CC[C@@H]3c4ccc(OS(=O)(=O)O)cc4CC[C@H]3[C@@H]1CC[C@H]2O [Compound 16, 17(α)-estradiol-3-sulfate sodium]	> 100	> 300	>196	0.51			cytotoxicity shown by the compound (CEM-SS cells): no cytotoxicity; inhibition at 300 µM (HIV-1RF; read-out: inhibition of HIV-1 induced cytotoxicity in CEM-SS cells): 20%; CC50 (in vitro [6]; CEM-SS cells): > 300 µM
C[C@]12CCC3c4cc(C56CC7CC(CC(C7)C5)C6)c(O)cc4CCC3C1CCC2=O (stereo partly shown) [Compound 2]		19.7			> 100	0.23	
C[C@]12CC[C@@H]3c4cc(C56CC7CC(CC(C7)C5)C6)c(O)cc4CC[C@H]3[C@@H]1CC/C2=N\N [Compound 4]	24		353	0.068			CC50 (in vitro [1]): 34.5 ± 23.2 µM; EC50 (BVDV-NADL; [7]): 3.99 ± 0.99 µM
